In test [1] the test system is synthesis of LTB4 in human whole blood. Put plainly: LTB4 production inhibition assay in human whole blood (HWB). The settings on record: heparinized human whole blood, calcimycin 20 μM stimulated, plasma LTB4 by HTRF. The format is cell-based. Here is the method: The compounds of the invention are additionally tested in a human whole blood (HWB) assay to determine their ability to inhibit the synthesis of LTB4 in a cellular system. Compounds are combined with heparinized human whole blood and incubated for 15 minutes at 37° C. Calcimycin (20 μM final, prepared in phosphate-buffered saline, pH 7.4) is then added and the mixture is incubated for another 30 minutes at 37° C. The samples are centrifuged for 5 min at low speed (1500×g) and the plasma layer is removed. Plasma LTB4 concentrations are then measured using an antibody-based homogenous time-resolved fluorescence method (CisBio, Bedford, Mass.).
(Time-resolved FRET reads energy transfer from a long-lived donor to a nearby acceptor.)

Test [2] addresses human LTA4 hydrolase (Homo sapiens (Human), UniProt P09960). Put plainly: LTA4H Enzyme assay (peptidase, Arg-AMC cleavage). The format is biochemical. Particulars: LTA4H enzyme 1 nM, Arg-AMC substrate 50 μM, room temperature 1 h, fluorescence. Here is the method: The compounds of the invention are assessed for the ability to interact with human LTA4 hydrolase in an enzymatic assay that measures the ability of the enzyme to cleave the peptide bond of arginyl-aminomethylcoumarin (Arg-AMC). LTA4H Enzyme (1 nM final), Arg-AMC substrate (50 μM final), and compound are combined in a reaction buffer (50 mM Tris-HCl (pH 7.5), 100 mM KCl, 0.5% bovine serum albumin) at room temperature for 1 h. The formation of product is assessed by measuring the fluorescence of aminomethylcoumarin product (excitation wavelength 380 nm/emission wavelength 460 nm).

This passage reports IC50 results from patent US9303018B2, “Inhibitors of leukotriene production” (Boehringer Ingelheim International GmbH, priority 2013, dated 2016).

As a reminder, the IC50 is the concentration that inhibits the measured activity by half.

Sequence of human LTA4 hydrolase (P09960 whole entry): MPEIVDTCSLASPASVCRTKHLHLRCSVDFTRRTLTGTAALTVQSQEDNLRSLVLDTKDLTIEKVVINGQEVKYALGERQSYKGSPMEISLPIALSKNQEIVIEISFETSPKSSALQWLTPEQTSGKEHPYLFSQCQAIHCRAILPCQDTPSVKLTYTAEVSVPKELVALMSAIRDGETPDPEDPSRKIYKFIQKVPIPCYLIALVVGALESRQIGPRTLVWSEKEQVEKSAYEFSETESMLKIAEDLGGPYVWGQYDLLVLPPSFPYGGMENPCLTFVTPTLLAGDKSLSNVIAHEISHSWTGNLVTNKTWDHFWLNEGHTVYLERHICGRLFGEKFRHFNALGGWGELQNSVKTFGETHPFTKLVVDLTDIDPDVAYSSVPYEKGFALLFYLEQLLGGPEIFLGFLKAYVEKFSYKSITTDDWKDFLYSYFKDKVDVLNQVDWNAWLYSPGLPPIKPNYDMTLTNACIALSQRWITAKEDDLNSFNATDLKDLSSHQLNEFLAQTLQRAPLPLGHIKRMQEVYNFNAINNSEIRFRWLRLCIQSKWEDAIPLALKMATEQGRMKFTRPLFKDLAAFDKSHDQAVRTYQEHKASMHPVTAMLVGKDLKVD

Turning to `CC(=O)N1CCN(Cc2cnc3cc(Oc4ccc(-c5ccn[nH]5)cn4)ccc3c2)CC1` [Example 2, 1-(4-{7-[5-(2H-Pyrazol-3-yl)-pyridin-2-yloxy]-quinolin-3-ylmethyl}-piperazin-1-yl)-ethanone], the IC50 in test [1] was 150 nM; in test [2], 0.6 nM.

`CC(C)(O)C(=O)N1CCN(Cc2cnc3cc(Oc4ccc(-c5ccn[nH]5)cn4)ccc3c2)CC1` [Example 20, 2-Hydroxy-2-methyl-1-(4-{7-[5-(2H-pyrazol-3-yl)-pyridin-2-yloxy]-quinolin-3-ylmethyl)-piperazin-1-yl)-propan-1-one]: the half-inhibitory concentration (IC50) in test [1] amounted to 230 nM; in test [2], 1.6 nM.

`CN(Cc1cnc2cc(Oc3ccc(-c4ccn[nH]4)cn3)ccc2c1)[C@H]1CCN(C(=O)CO)C1` [Example 10, 2-Hydroxy-1-[(S)-3-(methyl-{7-[5-(2H-pyrazol-3-yl)-pyridin-2-yloxy]-quinolin-3-ylmethyl}-amino)-pyrrolidin-1-yl]-ethanone]: the IC50 in test [1] was determined as 140 nM; in test [2], 1.3 nM.

Regarding `CN(Cc1cnc2cc(Oc3ccc(-c4ccn[nH]4)cn3)ccc2c1)[C@@H]1CCN(C(=O)CO)C1` [Example 9, 2-Hydroxy-1-[(R)-3-(methyl-{7-[5-(2H-pyrazol-3-yl)-pyridin-2-yloxy]-quinolin-3-ylmethyl}-amino)-pyrrolidin-1-yl]-ethanone], the half-maximal inhibitory concentration (IC50) in test [1] is 150 nM; in test [2], 0.88 nM.

As to `CCC(=O)N1CCN(Cc2cnc3cc(Oc4ccc(-c5ccn[nH]5)cn4)ccc3c2)CC1` [Example 14, 1-(4-{7-[5-(2H-Pyrazol-3-yl)-pyridin-2-yloxy]-quinolin-3-ylmethyl}-piperazin-1-yl)-propan-1-one], the half-maximal inhibitory concentration (IC50) in test [1] was determined as 86 nM; in test [2], 0.44 nM.

Take `C[C@H](O)C(=O)N1CCN(Cc2cnc3cc(Oc4ccc(-c5ccn[nH]5)cn4)ccc3c2)CC1` [Example 18]: the 50% inhibitory concentration (IC50) in test [1] amounted to 180 nM; in test [2], 1.1 nM.

For the molecule `COCC(=O)N1CCN(Cc2cnc3cc(Oc4ccc(-c5ccn[nH]5)cn4)ccc3c2)CC1` [Example 4, 2-Methoxy-1-(4-{7-[5-(2H-pyrazol-3-yl)-pyridin-2-yloxy]-quinolin-3-ylmethyl}-piperazin-1-yl)-ethanone], the IC50 in test [1] was 170 nM; in test [2], 1.4 nM.

With `O[C@@H]1CCN(Cc2cnc3cc(Oc4ccc(-c5ccn[nH]5)cn4)ccc3c2)C1` [Example 17, (R)-1-{7-[5-(2H-Pyrazol-3-yl)-pyridin-2-yloxy]-quinolin-3-ylmethyl}-pyrrolidin-3-ol], the IC50 in test [1] turned out to be 230 nM; in test [2] it was 1.7 nM.

On to `O=C(C1CC1)N1CCN(Cc2cnc3cc(Oc4ccc(-c5ccn[nH]5)cn4)ccc3c2)CC1` [Example 22, Cyclopropyl-(4-{7-[5-(2H-pyrazol-3-yl)-pyridin-2-yloxy]-quinolin-3-ylmethyl}-piperazin-1-yl)-methanone], for which the half-maximal inhibitory concentration (IC50) in test [1] was 230 nM; in test [2], 0.93 nM.

As to `CC(C)(C)C(=O)N1CCN(Cc2cnc3cc(Oc4ccc(-c5ccn[nH]5)cn4)ccc3c2)CC1` [Example 21, 2,2-Dimethyl-1-(4-{7-[5-(2H-pyrazol-3-yl)-pyridin-2-yloxy]-quinolin-3-ylmethyl}-piperazin-1-yl)-propan-1-one], the half-inhibitory concentration (IC50) in test [1] was determined as 740 nM; in test [2], 1.7 nM.

Consider `CN(C(=O)CO)[C@H]1CCN(Cc2cnc3cc(Oc4ccc(-c5ccn[nH]5)cn4)ccc3c2)C1` [Example 11, 2-Hydroxy-N-methyl-N-((S)-1-{7-[5-(2H-pyrazol-3-yl)-pyridin-2-yloxy]-quinolin-3-ylmethyl}-pyrrolidin-3-yl)-acetamide], for which the 50% inhibitory concentration (IC50) stood at 250 nM in test [1] and 2.6 nM in test [2].

As to `O=C1OCCN1C1CCN(Cc2cnc3cc(Oc4ccc(-c5ccn[nH]5)cn4)ccc3c2)CC1` [Example 6, 3-(1-{7-[5-(2H-Pyrazol-3-yl)-pyridin-2-yloxy]-quinolin-3-ylmethyl}-piperidin-4-yl)-oxazolidin-2-one], the IC50 in test [1] stood at 270 nM; in test [2], 1.9 nM.

For the molecule `CC(C)C(=O)N1CCN(Cc2cnc3cc(Oc4ccc(-c5ccn[nH]5)cn4)ccc3c2)CC1` [Example 23], the IC50 is 160 nM in test [1] and 0.54 nM in test [2].

As to `CN(C(=O)CO)[C@@H]1CCN(Cc2cnc3cc(Oc4ccc(-c5ccn[nH]5)cn4)ccc3c2)C1` [Example 12, 2-Hydroxy-N-methyl-N-((R)-1-{7-[5-(2H-pyrazol-3-yl)-pyridin-2-yloxy]-quinolin-3-ylmethyl}-pyrrolidin-3-yl)-acetamide], the IC50 in test [1] came to 180 nM; in test [2], 1.8 nM.

As to `OC1CCN(Cc2cnc3cc(Oc4ccc(-c5ccn[nH]5)cn4)ccc3c2)CC1` [Example 7, l-{7-[5-(2H-Pyrazol-3-yl)-pyridin-2-yloxy]-quinolin-3-ylmethyl}-piperidin-4-ol], the results for the IC50 in test [1] and in test [2] were 500 nM and 3.7 nM, respectively.

Regarding `CN(C(=O)CO)C1CCN(Cc2cnc3cc(Oc4ccc(-c5ccn[nH]5)cn4)ccc3c2)CC1` [Example 15, 2-Hydroxy-N-methyl-N-(1-{7-[5-(2H-pyrazol-3-yl)-pyridin-2-yloxy]-quinolin-3-ylmethyl}-piperidin-4-yl)-acetamide], the IC50 worked out at 380 nM in test [1] and 3.5 nM in test [2].

As for `OC1CN(Cc2cnc3cc(Oc4ccc(-c5ccn[nH]5)cn4)ccc3c2)C1` [Example 3, 1-{7-[5-(2H-Pyrazol-3-yl)-pyridin-2-yloxy]-quinolin-3-ylmethyl}-azetidin-3-ol], the half-inhibitory concentration (IC50) in test [1] was determined as 430 nM; in test [2], 4 nM.

With `CC(=O)N1CC(CN(C)Cc2cnc3cc(Oc4ccc(-c5ccn[nH]5)cn4)ccc3c2)C1` [Example 16, 1-{3-[(Methyl-{7-[5-(2H-pyrazol-3-yl)-pyridin-2-yloxy]-quinolin-3-ylmethyl}-amino)-methyl]-azetidin-1-yl}-ethanone], the IC50 in test [1] amounted to 110 nM; in test [2], 1.1 nM.

Turning to `O[C@H]1CCN(Cc2cnc3cc(Oc4ccc(-c5ccn[nH]5)cn4)ccc3c2)C1` [Example 13, (S)-1-{7-[5-(2H-Pyrazol-3-yl)-pyridin-2-yloxy]-quinolin-3-ylmethyl)-pyrrolidin-3-ol], the concentration for half-maximal inhibition (IC50) in test [1] was 220 nM; in test [2] it was 2.5 nM.

For the molecule `CC1(O)CN(Cc2cnc3cc(Oc4ccc(-c5ccn[nH]5)cn4)ccc3c2)C1` [Example 8, 3-Methyl-1-{7-[5-(2H-pyrazol-3-yl)-pyridin-2-yloxy]-quinolin-3-ylmethyl}-azetidin-3-ol], the figures for the IC50 in test [1] and in test [2] were 410 nM and 2.4 nM, respectively.

For the molecule `O=C(CO)N1CCN(Cc2cnc3cc(Oc4ccc(-c5ccn[nH]5)cn4)ccc3c2)CC1` [Example 1, 2-Hydroxy-1-(4-{7-[5-(2H-pyrazol-3-yl)-pyridin-2-yloxy]-quinolin-3-ylmethyl}-piperazin-1-yl)-ethanone], the concentration for half-maximal inhibition (IC50) in test [1] stood at 160 nM; in test [2] it was 0.69 nM.

Consider `O=C1[C@@H](O)CCN1C1CCN(Cc2cnc3cc(Oc4ccc(-c5ccn[nH]5)cn4)ccc3c2)CC1` [Example 5, (S)-3-Hydroxy-1-(1-{7-[5-(2H-pyrazol-3-yl)-pyridin-2-yloxy]-quinolin-3-ylmethyl}-piperidin-4-yl)-pyrrolidin-2-one], for which the IC50 in test [1] turned out to be 370 nM; in test [2], 2.6 nM.

As for `CN(C)C(=O)C1CCN(Cc2cnc3cc(Oc4ccc(-c5ccn[nH]5)cn4)ccc3c2)CC1` [Example 19, 1-{7-[5-(2H-Pyrazol-3-yl)-pyridin-2-yloxy]-quinolin-3-ylmethyl}-piperidine-4-carboxylic acid dimethylamide], the concentration for half-maximal inhibition (IC50) in test [1] was 480 nM; in test [2] it was 1.5 nM.
